Data on 12 compounds can be found in US10253024B2, “Polycyclic indoline and indolenine compounds” (The Regents of the University of Colorado, a body corporate, priority 2015, dated 2019).

Converted amounts (≈) assume the structure as drawn. Counter-ions that a name gives are not always drawn. Where only a bound is given, the exact number is not on record here.

Data set [1] concerns MRSA BAA-44. Briefly: MIC of antibiotics in absence and presence of 11b (broth microdilution). Format: cell-based, S. aureus. The conditions noted are these: for Fold of potentiation: MIC alone versus with 10 μM 11b; for MIC: Staphylococcus aureus, antibiotic alone; for MIC (+11b): in the presence of 10 μM 11b. An excerpt: The MICs of a variety of antibiotics in the presence and absence of 11b, respectively. In addition to methicillin, BAA-44 is also resistant to a wide range of antibiotics, such as tetracycline, erythromycin, and daptomycin. As shown in Table 2-3, compound 11b potentiates the activity of all β-lactams tested, such as oxacillin, amox/clav, cefazolin, and meropenem. Without being bound by any theory, it is believed compound 11b and other compounds of the invention are selective potentiators of β-lactams.
(§1) The minimal inhibitory concentrations (MICS) of antimicrobial compounds and 11b were determined by the broth microdilution method detailed in the Clinical and Laboratory Standards Institute (CLSI) handbook. All antimicrobial compounds were purchased from Sigma-Aldrich. The growth media used for all MIC experiments was Mueller Hinton Broth (MHB) purchased from HIMEDIA through VWR (cat: 95039-356). The inoculum was prepared by diluting a bacterial day culture (OD600 0.15-0.4) to OD600 0.002. This dilution was further diluted two fold when added to 96 well microplates (USA Scientific CytoOne 96-well TC plate, cat: CC7682-7596) for a final inoculum concentration of OD600 0.001. All plates were incubated at 37° C. with shaking for 18 hours before results were interpreted.
The MRSA strain ATCC BAA-44 was used to determine the MIC values of various antimicrobial compounds in the presence of 10 μM 11b. The experiment was conducted similarly to the CLSI MIC determination described previously; however, MHB was supplemented with 20 μM 11b prior to set up and inoculation. The final concentration of 11b after inoculation with BAA-44 was 10 μM.
In general terms: In broth dilution the organism is exposed to a series of concentrations in liquid medium.

Data set [2] relates to multi-drug resistant MRSA strain, ATCC BAA-44. Briefly: Minimum re-sensitizing concentration (MRC) for cefazolin. Format: cell-based, S. aureus. The conditions noted are these: MRSA ATCC BAA-44; re-sensitizing to cefazolin. As to the method:
(§2) ATIs 11-14 represent a wide range of clogD values and their minimum re-sensitizing concentrations (MRCS) for cefazolin (i.e., a first-generation cephalosporin) and amoxicillin/clavulanic acid (i.e., Augmentin, amox/clav) was evaluated as well as their minimum inhibitory concentrations (MICs) in a multi-drug resistant MRSA strain, ATCC BAA-44. Any compounds with promising MRC and MIC were then evaluated for potential mammalian toxicity by determining their half growth inhibitory concentrations (GI50) in human cervical adenocarcinoma (HeLa) cells.
(§3) Antibiotic MIC values where S. aureus is considered susceptible were determined from the CLSI handbook. MHB was supplemented with the antimicrobial at a concentration two fold greater than the CLSI susceptible MIC value. Two-fold serial dilutions of 11b were prepared in antibiotic supplemented media in 96-well microplates. These were inoculated with MRSA diluted to OD600 0.002 and incubated at 37° C. with shaking for 18 hours before results were interpreted. The concentration of 11b in antibiotic supplemented media at which there was no observable growth was considered the minimum resensitizing concentration (MRC). For amoxicillin/clavulanic acid, the initial concentration was 8/4 μg/mL; for cefazolin, 16 μg/mL. A 50 μL portion of the antibiotic containing media was added to each well of 96-well plates, and 100 μL was added to the top row. A 1.28 μL portion of 5 mg/mL 11b was added to the top row of each plate to afford a concentration of 64 μg/mL in the top row of each plate, and 2-fold serial dilutions were performed down the columns. Once the plates were prepared, a day culture of MRSA was diluted to OD600 0.002, and 50 μL was added to each well. The final concentration of MRSA added was OD600 0.001, the final concentration of amoxicillin/clavulanic acid was 4/2 μg/mL, the final concentration of cefazolin was 8 μg/mL, and the highest concentration of 11b tested was 32 μg/mL. Plates were incubated overnight at 37° C. with shaking. The MRC value was determined as the concentration of 11b in the presence of antibiotic at which there was no observable overnight growth.

Data set [3] shares this test system. Briefly: Minimum re-sensitizing concentration (MRC) for amoxicillin/clavulanic acid. Format: cell-based, S. aureus. The conditions noted are these: MRSA ATCC BAA-44; re-sensitizing to amoxicillin/clavulanic acid. As to the method:
as §2, §3

Data set [4] has the same test system. Briefly: Minimum inhibitory concentration (MIC) of the compound alone. Format: cell-based, S. aureus. The conditions noted are these: for MIC: Staphylococcus aureus, MRSA ATCC BAA-44, compound alone; for antibacterial activity on its own (in words): MRSA BAA-44. As to the method: as §2, §1
Data set [5] in a line: Half growth inhibitory concentration (GI50), mammalian toxicity. The conditions noted are these: human, HeLa cells (human cervical adenocarcinoma). Format: cell-based. As to the method: as §2
To evaluate the cytotoxicity of 11b in mammalian cells, a cell viability assay was carried out using CellTiter-Glo luminescent cell viability assay kit (Promega). Human cervical adenocarcinoma HeLa cells were seeded on white, cell-culture treated 96-well plates (Corning: 3917) with Dulbecco's modified Eagle's medium (DMEM) supplemented with 10% fetal calf serum (FCS), 1% penicillin/streptomycin, at the densities of 20,000 cells/well. The medium volume for each well was 100 μL. Cells were incubated at 37° C. in 5% CO2/95% air for 16 hours. The medium was removed from each well and replaced with 99 μL of warmed fresh medium. To each well was then added 1.0 μL of 11b in DMSO with the final concentrations of 1.56-200 μg/mL. Each concentrate was performed in two replicates. After incubation at 37° C. for another 24 hours, the plates were equilibrated to room temperature for 30 minutes. 100 μL of CellTiter-Glo reagent (Promega) was added to each well and mixed for 2 minutes on an orbital shaker. The plate was incubated at room temperature for another 10 minutes to stabilize luminescent signal. The luminescence of each sample was recorded in an Envision Multilabel Plate Reader (Perkin Elmer).

In data set [6] the test system is MRSA strains NRS-100 and NRS-384, VRSA strain NR-46414. Nature of the data set: MRC of 13 in further MRSA/VRSA strains. Format: cell-based, S. aureus. The conditions noted are these: community-acquired MRSA NRS-100, NRS-384 and VRSA NR-46414. As to the method: Compound 14 is zwitterionic under physiological conditions and has even lower clogD value. Further evaluations of 13 in a variety of MRSA strains, such as community-acquired MRSA strains NRS-100 and NRS-384, and vancomycin-resistant S. aureus (VRSA) strain NR-46414, also gave a similar results (MRCs=2 μg mL^−1).
Antibiotic MIC values where S. aureus is considered susceptible were determined from the CLSI handbook. MHB was supplemented with the antimicrobial at a concentration two fold greater than the CLSI susceptible MIC value. Two-fold serial dilutions of 11b were prepared in antibiotic supplemented media in 96-well microplates. These were inoculated with MRSA diluted to OD600 0.002 and incubated at 37° C. with shaking for 18 hours before results were interpreted. The concentration of 11b in antibiotic supplemented media at which there was no observable growth was considered the minimum resensitizing concentration (MRC). For amoxicillin/clavulanic acid, the initial concentration was 8/4 μg/mL; for cefazolin, 16 μg/mL. A 50 μL portion of the antibiotic containing media was added to each well of 96-well plates, and 100 μL was added to the top row. […] The MRC value was determined as the concentration of 11b in the presence of antibiotic at which there was no observable overnight growth.

A short description of data set [7]: Saturated concentration (aqueous solubility). Format: physicochemical. As to the method: (§4) The physiochemical properties of various compounds were evaluated. […] In vivo pharmacokinetic (PK) properties of 13 was evaluated.
The nature of data set [8]: In vivo pharmacokinetics and tolerability, single IP dose. The conditions noted are these: mouse. As to the method:
as §4
(§5) To test this, permeability assessments were performed using MDCK cells.

Data set [9] is described as follows: in vitro. The conditions noted are these: dog, MDCK. As to the method: as §5

As to `C[C@@H](O)[C@H]1C(=O)N2C(C(=O)O)=C(S[C@@H]3CN[C@H](C(=O)N(C)C)C3)[C@H](C)[C@H]12` [Meropenem], in [1], the Fold of potentiation is listed as 4, the MIC turned out to be 4 µg/mL and the “MIC (+11b)” value stood at 1 µg/mL.
For `C=C1CN(S(C)(=O)=O)C[C@@H]2Nc3c(F)cc(Br)cc3[C@]12CCNS(=O)(=O)c1ccc(Cl)cc1` [Ms-ATI 11b, N-(2-((4aS,9aR)-6-bromo-8-fluoro-4-methylene-2-(methylsulfonyl)-1,2,3,4,9,9a-hexahydro-4aH-pyrido[3,4-b]indol-4a-yl)ethyl)-4-chlorobenzenesulfonamide], the “MRC Cef” value in data set [2] was over 32 µg/mL. Also, the “MRC Amox/clav” value in data set [3] is over 32 µg/mL. The MIC in data set [4] is over 32 µg/mL.
As to `C=C1CN(S(=O)(=O)c2ccc([N+](=O)[O-])cc2)C[C@@H]2Nc3c(F)cc(Br)cc3[C@]12CCNS(=O)(=O)c1ccc(Cl)cc1` [Ns-ATI 11a, N-(2-((4aS,9aR)-6-bromo-8-fluoro-4-methylene-2-((4-nitrophenyl)sulfonyl)-1,2,3,4,9,9a-hexahydro-4aH-pyrido[3,4-b]indol-4a-yl)ethyl)-4-chlorobenzenesulfonamide], the “MRC Cef” value in data set [2] is over 32 µg/mL. The “MRC Amox/clav” value in data set [3] was over 32 µg/mL. The compound also yielded a minimal inhibitory concentration (MIC) in [4] of over 32 µg/mL.
For the compound `C=C1CNC[C@@H]2Nc3c(F)cc(Br)cc3[C@]12CCNS(=O)(=O)c1ccc(Cl)cc1` [NH-ATI 12, N-(2-((4aS,9aR)-6-bromo-8-fluoro-4-methylene-1,2,3,4,9,9a-hexahydro-4aH-pyrido[3,4-b]indol-4a-yl)ethyl)-4-chlorobenzenesulfonamide], in [2], the “MRC Cef” value was 4 µg/mL. Also, the “MRC Amox/clav” value in data set [3] came out at 4 µg/mL. In [4], the “antibacterial activity on its own (in words)” value is recorded as “potent antibacterial activity on its own” and the minimal inhibitory concentration (MIC) came to 8 µg/mL (≈ 16 µM). Also, in [5], the GI50 at 24 h came out at 6.7 µg/mL (≈ 13.4 µM).
Take `C=C1CN(C(=N)N)C[C@@H]2Nc3c(F)cc(Br)cc3[C@]12CCNS(=O)(=O)c1ccc(Cl)cc1` [Guan-ATI 13, (4aS,9aR)-6-bromo-4a-(2-((4-chlorophenyl)sulfonamido)ethyl)-8-fluoro-4-methylene-1,3,4,4a,9,9a-hexahydro-2H-pyrido[3,4-b]indole-2-carboximidamide]: the “MRC Cef” value in [2] was determined as 2 µg/mL. In addition, in data set [3], the “MRC Amox/clav” value is 2 µg/mL. Further, in data set [4], the MIC was 8 µg/mL (≈ 14.7 µM). In data set [5], this compound showed a 50% growth inhibitory concentration (GI50) at 24 h of 40 µg/mL (≈ 73.7 µM). The MRCs in data set [6] stood at 2 µg/mL. For the same compound, in data set [7], the saturated concentration was 587 µg/mL and the “saturated concentration as fold of MRC in MRSA” value was about 300 fold. Moreover, in [8] (in vivo, 30 min), the “plasma levels as multiple of MRC in MRSA” value is “approximately 4 ×MRC”. In addition, in data set [8] (plasma, 30 mg/kg), the AUC is 18200 ng·h/mL, the Cmax is 8000 ng/mL and the half-life was 2.5 h. The same compound came in with a Papp in [9] of 2.11 ×10⁻⁶ cm/s.
For `Cc1onc(-c2ccccc2)c1C(=O)N[C@@H]1C(=O)N2[C@@H]1SC(C)(C)[C@@H]2C(=O)O` [Oxacillin], in [1], the Fold of potentiation is given as 32, the MIC was 32 µg/mL and the “MIC (+11b)” value is 1 µg/mL.
Regarding `COc1cccc(OC)c1C(=O)N[C@@H]1C(=O)N2[C@@H]1SC(C)(C)[C@@H]2C(=O)O` [Methicillin], in data set [1], the Fold of potentiation was found to be 16, the MIC amounted to 128 µg/mL and the “MIC (+11b)” value worked out at 8 µg/mL.
For the compound `C=C1CN(C(=O)C(F)(F)F)C[C@@H]2Nc3c(F)cc(Br)cc3[C@]12CCNS(=O)(=O)c1ccc(Cl)cc1` [TFA-ATI 11c, N-(2-((4aS,9aR)-6-bromo-8-fluoro-4-methylene-2-(2,2,2-trifluoroacetyl)-1,2,3,4,9,9a-hexahydro-4aH-pyrido[3,4-b]indol-4a-yl)ethyl)-4-chlorobenzenesulfonamide], the “MRC Cef” value in [2] came to 4 µg/mL. For the same compound, the “MRC Amox/clav” value in [3] worked out at 4 µg/mL. In data set [4], the “antibacterial activity on its own (in words)” value is “without observable antibacterial activity” and the minimum inhibitory concentration (MIC) is over 32 µg/mL. The GI50 at 24 h in data set [5] was found to be 19 µg/mL.
Turning to `C=C1CN(CC(=O)O)C[C@@H]2Nc3c(F)cc(Br)cc3[C@]12CCNS(=O)(=O)c1ccc(Cl)cc1` [Gly-ATI 14, 2-((4aS,9aR)-6-bromo-4a-(2-((4-chlorophenyl)sulfonamido)ethyl)-8-fluoro-4-methylene-1,3,4,4a,9,9a-hexahydro-2H-pyrido[3,4-b]indol-2-yl)acetic acid], the “MRC Cef” value in data set [2] was over 32 µg/mL. Besides, the “MRC Amox/clav” value in [3] is over 32 µg/mL. For the same compound, the minimum inhibitory concentration (MIC) in data set [4] is over 32 µg/mL.
Take `Cc1nnc(SCC2=C(C(=O)O)N3C(=O)[C@@H](NC(=O)Cn4cnnn4)[C@H]3SC2)s1` [Cefazolin]: in data set [1], the Fold of potentiation is listed as 32, the minimal inhibitory concentration (MIC) was 128 µg/mL and the “MIC (+11b)” value came out at 4 µg/mL.
The compound `COCCc1ccc(OCC(O)CNC(C)C)cc1` (stereo not drawn) [metoprolol] displayed a Papp in data set [9] of 53.5 ×10⁻⁶ cm/s.
The same measure, in the same setting: to `OC[C@@H](O)[C@@H](O)[C@H](O)[C@H](O)CO` [mannitol] belongs 1.51 ×10⁻⁶ cm/s.

One may read the MIC as the smallest concentration in the dilution series that meets the test's criterion for growth inhibition. In general, GI50 refers to the concentration giving 50% growth inhibition. Low readings indicate greater sensitivity of the cells, high ones lower sensitivity of the cells. The AUC is the area under the concentration-time curve, a measure of exposure. A lower AUC goes with less exposure. One may read the Cmax as the maximum level reached in the sampled fluid or tissue. For orientation: half-life means how long it takes for the measured level to halve. Low values mean rapid decline, high ones slow decline. By Papp is commonly meant the rate of passage across a membrane or cell layer, normalised by area and donor concentration. Low readings indicate poor permeation, high ones ready permeation.
